# Measurements as given in patent US20220280499A1, “NOVEL DRUG COMBINATIONS FOR TREATMENT OF A CARCINOMA” (Stichting Het Nederlands Kanker Instituue-Antoni van …, priority 2019, published 2022).
# pKi: −log10 of the molar value.
# Columns and labels:
# SNU449 xenograft = conditions: nude mice, lenvatinib 4 mg/kg, gefitinib 80 mg/kg, about 27 days
# SNU449 cells = test: EGFR shRNA knockdown with lenvatinib, proliferation; format: cell-based, human; conditions: SNU449 cells with EGFR shRNA vectors, about 10 days
# Protocol: FIG. 1. […] Cell growth was assessed by a colony formation assay. […] Viability was assessed by CellTiter-Blue assays. (c) The level of EGFR knockdown was determined by western blot for three independent shRNAs. HSP90 protein level served as a loading control.
# After this, genomic DNA was isolated from both treated and untreated cells, and the relative abundance of gRNA was determined by next generation sequencing of the bar code contained in each gRNA vector in three biological replicates as described (Evers et al., 2016. Nat Biotechnol 34: 631-3).
# EGFR = test: western blot with phospho-protein-specific antibodies, EGFR activation; format: cell-based, human; conditions: three EGFR-high liver cancer cell lines
# Protocol: (§1) FIG. 3. […] Activation of EGFR and ERK1/2 was analyzed. HSP90 served as a control.
# ERK1/2 = test: western blot with phospho-protein-specific antibodies, ERK1/2 activation; format: cell-based, human; conditions: three EGFR-high liver cancer cell lines
# Protocol: as §1
# FGFR2 = FGFR2 (Homo sapiens, UniProt P21802); conditions: cited from earlier work
# VEGFR family = conditions: cited from earlier work
# advanced HCC = conditions: first-line treatment of advanced HCC; cited from earlier work
# advanced HCC patients = conditions: clinical trials; cited from earlier work
# FGFR2, sequence (P21802 22-821, species assumed): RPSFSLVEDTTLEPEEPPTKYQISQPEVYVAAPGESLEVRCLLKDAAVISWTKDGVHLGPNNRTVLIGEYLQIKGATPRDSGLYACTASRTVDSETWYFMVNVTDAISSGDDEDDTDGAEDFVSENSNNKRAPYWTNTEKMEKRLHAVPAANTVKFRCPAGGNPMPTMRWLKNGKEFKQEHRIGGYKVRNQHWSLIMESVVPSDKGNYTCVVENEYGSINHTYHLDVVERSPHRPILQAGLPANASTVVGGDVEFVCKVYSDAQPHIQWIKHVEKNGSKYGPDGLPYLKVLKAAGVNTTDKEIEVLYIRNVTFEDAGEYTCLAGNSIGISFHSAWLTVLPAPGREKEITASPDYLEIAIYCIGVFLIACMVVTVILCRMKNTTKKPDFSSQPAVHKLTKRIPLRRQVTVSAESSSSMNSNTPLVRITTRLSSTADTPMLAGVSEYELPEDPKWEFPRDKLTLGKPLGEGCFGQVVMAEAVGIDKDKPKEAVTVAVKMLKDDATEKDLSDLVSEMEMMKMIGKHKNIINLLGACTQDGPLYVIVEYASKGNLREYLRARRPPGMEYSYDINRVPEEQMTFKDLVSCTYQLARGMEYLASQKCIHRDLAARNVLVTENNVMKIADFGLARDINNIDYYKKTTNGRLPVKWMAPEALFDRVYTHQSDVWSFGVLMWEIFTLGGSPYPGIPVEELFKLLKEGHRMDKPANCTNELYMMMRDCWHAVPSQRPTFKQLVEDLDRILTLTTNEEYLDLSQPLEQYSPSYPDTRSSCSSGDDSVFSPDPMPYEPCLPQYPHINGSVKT
SMILES,tumor growth / antitumor effect (SNU449 xenograft),proliferation with suppression of EGFR (shRNA) in combination (SNU449 cells),Tyr 1068 phosphorylation of EGFR (activation of the receptor) (EGFR),phosphorylation (activation) of ERK1/2 (ERK1/2),pKi (FGFR2),pKi (VEGFR family),overall survival (advanced HCC),improvement of survival compared to placebo (advanced HCC patients)
"COc1cc2ncnc(Nc3ccc(F)c(Cl)c3)c2cc1OCCCN1CCOCC1 [gefitinib, N-(3-chloro-4-fluorophenyl)-7-methoxy-6-(3-morpholin-4-ylpropoxy)quinazolin-4-amine]",little antitumor effect,,,,,,,
"COc1cc2nccc(Oc3ccc(NC(=O)NC4CC4)c(Cl)c3)c2cc1C(N)=O [lenvatinib, 4-[3-chloro-4-(cyclopropylcarbamoylamino)phenoxy]-7-methoxyquinoline-6-carboxamide]",little antitumor effect,marked inhibition of proliferation,strong increase,strong increase,8.09,9.00,13.6 months,
"CNC(=O)c1cc(Oc2ccc(NC(=O)Nc3ccc(Cl)c(C(F)(F)F)c3)cc2)ccn1 [sorafenib, 4-[4-[[4-chloro-3-(trifluoromethyl)phenyl]carbamoylamino]phenoxy]-N-methylpyridine-2-carboxamide]",,,,,,,12.3 months,less than 3 months
